For one series, the target named is hCA IV (Homo sapiens, UniProt P22748). Description: stopped-flow CO2 hydrase assay, hCA IV. Particulars: for Ki ratio CA IV/CA IX: selectivity for hCA IX over hCA IV.
The target of the next series is hCA II (Homo sapiens, UniProt P00918). Description: stopped-flow CO2 hydrase assay, hCA II. The settings on record: for Ki ratio CA II/CA IX: selectivity for hCA IX over hCA II.
For another series, the target named is hCA IX (Homo sapiens, UniProt Q16790). Nature of the series: stopped-flow CO2 hydrase assay, hCA IX. The settings on record: mean from three assays, errors ±5–10%.
The target in another series is hCA I (Homo sapiens, UniProt P00915). Description: stopped-flow CO2 hydrase assay, hCA I. Particulars: for Ki ratio CA I/CA IX: selectivity for hCA IX over hCA I.

The structures appear in SMILES notation. Values joined by “and” are separate entries in the source; they are usually repeats but may differ in a detail not shown here. Identical values can stand only once.

The record followed here is publication PMC8344263, “Tetrahydroquinazole-based secondary sulphonamides as carbonic anhydrase inhibitors: synthesis, biological evaluation against isoforms I, II, IV, and IX, and computational studies” (Journal of Enzyme Inhibition and Medicinal Chemistry, 2021).

hCA IV, sequence (P22748 19-312): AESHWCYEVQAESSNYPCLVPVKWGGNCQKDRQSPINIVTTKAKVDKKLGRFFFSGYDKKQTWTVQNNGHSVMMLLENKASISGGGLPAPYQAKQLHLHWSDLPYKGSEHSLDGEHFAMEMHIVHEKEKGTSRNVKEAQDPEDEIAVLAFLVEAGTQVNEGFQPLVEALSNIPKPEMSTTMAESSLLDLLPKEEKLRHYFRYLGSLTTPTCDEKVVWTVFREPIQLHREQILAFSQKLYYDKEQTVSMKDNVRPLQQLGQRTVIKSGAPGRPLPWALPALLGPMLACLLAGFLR
hCA I, sequence (P00915 whole entry): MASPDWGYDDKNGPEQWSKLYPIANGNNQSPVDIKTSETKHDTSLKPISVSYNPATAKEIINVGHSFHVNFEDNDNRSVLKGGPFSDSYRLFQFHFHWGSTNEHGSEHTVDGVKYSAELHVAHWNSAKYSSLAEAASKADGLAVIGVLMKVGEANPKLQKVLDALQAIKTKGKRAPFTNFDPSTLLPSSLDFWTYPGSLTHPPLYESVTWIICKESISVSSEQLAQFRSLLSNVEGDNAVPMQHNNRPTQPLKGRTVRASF
Protocol for hCA II: (§1) An Applied Photophysics stopped-flow instrument was used for assaying the CA catalysed CO2 hydration activity[28]. […] The uncatalysed rates were determined in the same manner and subtracted from the total observed rates. Stock solutions of inhibitors (10 mM) were prepared in distilled-deionised water with 10% of DMSO and dilutions up to 0.01 µM were done thereafter with the assay buffer. The inhibitor and enzyme solutions were preincubated together for 15 min (standard assay at room temperature) prior to assay, to allow for the formation of the E-I complex. The inhibition constants were obtained by non-linear least-squares methods using PRISM 3 and the Cheng–Prusoff equation and represent the mean from at least three different determinations.
Protocol for hCA IV: as §1
Protocol for hCA IX: as §1

On to `O=C1CC(c2ccccc2)Cc2nc(Nc3ccc(S(=O)(=O)Nc4ccc([N+](=O)[O-])cc4)cc3)ncc21` (centres unmarked) [Compound 7, N-(4-nitrophenyl)-4-((5-oxo-7-phenyl-5,6,7,8-tetrahydroquinazolin-2-yl)amino)benzenesulfonamide], for which the melting point fell in the range of 118 to 120 °C. At hCA IV, the Ki was > 100 µM and the “Ki ratio CA IV/CA IX” value is listed as > 75.2. For the same molecule, on hCA II, the inhibitory constant (Ki) was 67.5 µM and the “Ki ratio CA II/CA IX” value was 50.7. The molecule further had a Ki on hCA IX of 1.33 µM. For the same molecule, at hCA I, the Ki is > 100 µM and the “Ki ratio CA I/CA IX” value is > 75.2.

Turning to `Cc1ccc(NS(=O)(=O)c2ccc(Nc3ncc4c(n3)CC(C)(C)CC4=O)cc2)cc1` [Compound 12, 4-((7,7-Dimethyl-5-oxo-5,6,7,8-tetrahydroquinazolin-2-yl)amino)-N-(p-tolyl)benzenesulfonamide], the melting point lay within 246 to 248 °C. For the same molecule, on hCA IV, the Ki worked out at 62.1 µM. For the same molecule, on hCA II, the Ki is 22.4 µM. At hCA IX, this molecule had a Ki of 19.3 µM. At hCA I, the inhibition constant Ki was determined as 84.9 µM.

`Cc1ccc(NS(=O)(=O)c2ccc(Nc3ncc4c(n3)CCCC4=O)cc2)cc1` [Compound 4, 4-((5-Oxo-5,6,7,8-tetrahydroquinazolin-2-yl)amino)-N-(4-tolyl)benzenesulfonamide] showed a melting point of 272 to 274 °C. On hCA IV, the Ki is > 100 µM; the “Ki ratio CA IV/CA IX” value is > 96 and >100 [CA IV/CA IX]^b>96. Also, on hCA II, the Ki was > 100 µM; the “Ki ratio CA II/CA IX” value is > 96 and >100 [CA II/CA IX]^b>96. The molecule also registered a Ki at hCA IX of 1.04 µM. At hCA I, the inhibition constant (Ki) is > 100 µM; the “Ki ratio CA I/CA IX” value was > 96 and >100 [CA I/CA IX]^b>96.

In the case of `CC1(C)CC(=O)c2cnc(Nc3ccc(S(=O)(=O)Nc4ccc([N+](=O)[O-])cc4)cc3)nc2C1` [Compound 11, 4-((7,7-Dimethyl-5-oxo-5,6,7,8-tetrahydroquinazolin-2-yl)amino)-N-(4-nitrophenyl)benzenesulfonamide], the melting point fell in the range of 264 to 266 °C. The Ki on hCA IV was > 100 µM. At hCA II, this molecule yielded a Ki of 6.9 µM. In addition, the Ki at hCA IX was > 100 µM. The molecule also gave an inhibition constant (Ki) at hCA I of 62 µM.

Molecule `NS(=O)(=O)c1ccc(Nc2ncc3c(n2)CCCC3=O)cc1` [Compound 16a, 4-((5-oxo-5,6,7,8-tetrahydroquinazolin-2-yl)amino)benzenesulfonamide] registered a melting point of 294 to 296 °C.

In turn, `CC1(C)CC(=O)c2cnc(Nc3ccc(S(=O)(=O)Nc4ccccc4)cc3)nc2C1` [Compound 9, 4-((7,7-Dimethyl-5-oxo-5,6,7,8-tetrahydroquinazolin-2-yl)amino)-N-phenylbenzenesulfonamide] had a melting point of 215 to 217 °C. For the same molecule, the Ki on hCA IV stood at 91.1 µM. In addition, at hCA II, the Ki amounted to 7.4 µM. This molecule also returned a Ki on hCA IX of 47.3 µM. The same molecule showed a Ki on hCA I of 70.5 µM.

For the molecule `NS(=O)(=O)c1ccc(Nc2ncc3c(n2)CC(c2ccccc2)CC3=O)cc1` (centres unmarked) [Compound 16b, 4-((5-oxo-7-phenyl-5,6,7,8-tetrahydroquinazolin-2-yl)amino)benzenesulfonamide], the melting point was in the range of 214 to 215 °C.

Consider `O=C1CCCc2nc(Nc3ccc(S(=O)(=O)Nc4ccc([N+](=O)[O-])cc4)cc3)ncc21` [Compound 3, N-(4-nitrophenyl)-4-((5-oxo-5,6,7,8-tetrahydroquinazolin-2-yl)amino)benzenesulfonamide], for which the melting point was 264 to 266 °C. On hCA IV, the Ki was > 100 µM. Further, on hCA II, the Ki was > 100 µM. On hCA IX, this molecule yielded a Ki of 0.42 µM. In addition, on hCA I, the Ki is > 100 µM.

Molecule `Cc1ccc(NS(=O)(=O)c2ccc(Nc3ncc4c(n3)CC(c3ccccc3)CC4=O)cc2)cc1` (centres unmarked) [Compound 8, 4-((5-Oxo-7-phenyl-5,6,7,8-tetrahydroquinazolin-2-yl)amino)-N-(4-tolyl)benzenesulfonamide] showed a melting point of 83 to 85 °C. At hCA IV, the Ki is > 100 µM. The same molecule had an inhibition constant Ki on hCA II of 13 µM. Besides, the Ki on hCA IX came out at 15.7 µM. For the same molecule, the Ki on hCA I turned out to be 46.1 µM.

`CC1(C)CC(=O)c2cnc(Nc3ccc(S(N)(=O)=O)cc3)nc2C1` [Compound 16c, 4-((5-oxo-7,7-dimethyl-5,6,7,8-tetrahydroquinazolin-2-yl)amino)benzenesulfonamide] registered a melting point of 258 to 260 °C.

With `COc1ccc(NS(=O)(=O)c2ccc(Nc3ncc4c(n3)CC(C)(C)CC4=O)cc2)cc1` [Compound 10, 4-((7,7-Dimethyl-5-oxo-5,6,7,8-tetrahydroquinazolin-2-yl)amino)-N-(4-methoxyphenyl)benzenesulfonamide], the melting point was 210 to 212 °C. At hCA IV, this molecule gave an inhibition constant Ki of 78.1 µM. On hCA II, this molecule showed a Ki of 5.1 µM. For the same molecule, the affinity at hCA IX corresponds to a Ki of 48.1 µM. The inhibition constant Ki on hCA I turned out to be 24.7 µM.

In turn, `O=C1CC(c2ccccc2)Cc2nc(Nc3ccc(S(=O)(=O)Nc4ccccc4)cc3)ncc21` (centres unmarked) [Compound 5, 4-((5-Oxo-7-phenyl-5,6,7,8-tetrahydroquinazolin-2-yl)amino)-N-phenylbenzenesulfonamide] came in with a melting point of 111 to 113 °C. Moreover, on hCA IV, the Ki is > 100 µM and the “Ki ratio CA IV/CA IX” value is on record as > 222. Further, the Ki on hCA II was > 100 µM. The affinity on hCA IX, expressed as Ki, was 0.45 µM. Also, on hCA I, the Ki was > 100 µM and the “Ki ratio CA I/CA IX” value was > 222.

On to `O=C1CCCc2nc(Nc3ccc(S(=O)(=O)Nc4ccccc4)cc3)ncc21` [Compound 1, 4-((5-Oxo-5,6,7,8-tetrahydroquinazolin-2-yl)amino)-N-phenylbenzenesulfonamide], for which the melting point fell in the range of 281 to 283 °C. Besides, the Ki on hCA IV was > 100 µM. At hCA II, the Ki came out at 41.2 µM. The same molecule yielded a Ki at hCA IX of 0.48 µM. In addition, affinity at hCA I was put at a Ki of 89.1 µM.

Consider `COc1ccc(NS(=O)(=O)c2ccc(Nc3ncc4c(n3)CCCC4=O)cc2)cc1` [Compound 2, N-(4-methoxyphenyl)-4-((5-oxo-5,6,7,8-tetrahydroquinazolin-2-yl)amino)benzenesulfonamide], for which the melting point is 233 to 235 °C. Moreover, the Ki on hCA IV is > 100 µM. At hCA II, the Ki was found to be 50.3 µM. This molecule gave a Ki at hCA IX of 0.46 µM. The Ki on hCA I is > 100 µM.

`COc1ccc(NS(=O)(=O)c2ccc(Nc3ncc4c(n3)CC(c3ccccc3)CC4=O)cc2)cc1` (centres unmarked) [Compound 6, N-(4-methoxyphenyl)-4-((5-oxo-7-phenyl-5,6,7,8-tetrahydroquinazolin-2-yl)amino)benzenesulfonamide] yielded a melting point of 103 to 105 °C. In addition, on hCA IV, the Ki was > 100 µM and the “Ki ratio CA IV/CA IX” value is > 57.8. For the same molecule, on hCA II, the Ki amounted to 11.5 µM and the “Ki ratio CA II/CA IX” value is given as 6.6. This molecule also had a Ki on hCA IX of 1.73 µM. At hCA I, the Ki was determined as 34 µM and the “Ki ratio CA I/CA IX” value worked out at 19.6.

The term Ki denotes a measure of affinity in units of concentration, obtained from inhibition or displacement. A high value points to weaker binding. As usually defined, the melting point is the temperature of the solid-liquid transition.
